The source of these data is ChEMBL document CHEMBL1134025, “Thiosugars. Part 9: synthesis and biological evaluation of some 4'-thio-L-arabino nucleoside analogues” (2001).

Assay [1] deals with Human alphaherpesvirus 1. Description: Minimum inhibitory concentration required to reduce HSV-1 induced cytopathogenicity by 50%. In kind it is functional. Background: Cytopathic effects are the visible damage that an infection or toxin causes in cultured cells.
Assay [2] concerns Mammalian orthoreovirus 1. Kind of assay: Minimum inhibitory concentration required to reduce Reo virus-1 induced cytopathogenicity by 50%. The assay is classed as functional, reo virus type 1.
Assay [3] relates to Human alphaherpesvirus 3. Description: Minimum inhibitory concentration required to reduce VZV induced cytopathogenicity by 50%. In kind it is functional.
The subject of assay [4] is Human respirovirus 3. Kind of assay: Minimum inhibitory concentration required to reduce Parainfluenza-3 virus induced cytopathogenicity by 50%. The assay is classed as functional.
For assay [5], the system named is Human immunodeficiency virus 1. Kind of assay: Minimum inhibitory concentration required to reduce HIV-1 induced cytopathogenicity by 50%. The assay is classed as functional.
The subject of assay [6] is Sindbis virus. Kind of assay: Minimum inhibitory concentration required to reduce Sindbis virus induced cytopathogenicity by 50%. In kind it is functional.
Assay [7] has as its system Human betaherpesvirus 5. Kind of assay: Minimum inhibitory concentration required to reduce HCMV induced cytopathogenicity by 50%. The assay is classed as functional.
The test system of assay [8] is Respiratory syncytial virus. Description: Minimum inhibitory concentration required to reduce Respiratory syncytial virus induced cytopathogenicity by 50%. In kind it is functional. To be noted: human respiratory syncytial virus.
For assay [9], the system named is Punta Toro virus. Description: Minimum inhibitory concentration required to reduce Punta Toro virus induced cytopathogenicity by 50%. In kind it is functional.
For assay [10], the system named is Vesicular stomatitis virus. Kind of assay: Minimum inhibitory concentration required to reduce Vesicular stomatitis virus induced cytopathogenicity by 50%. In kind it is functional.
For assay [11], the system named is Human alphaherpesvirus 2. Description: Minimum inhibitory concentration required to reduce HSV-2 induced cytopathogenicity by 50%. In kind it is functional.
Assay [12] deals with Human immunodeficiency virus 2. Description: Minimum inhibitory concentration required to reduce HIV-2 induced cytopathogenicity by 50%. In kind it is functional.
For assay [13], the system named is Coxsackievirus B4. Kind of assay: Minimum inhibitory concentration required to reduce Coxsackie B4 virus induced cytopathogenicity by 50%. In kind it is functional. As to conditions: Enterovirus B.
The test system of assay [14] is Human alphaherpesvirus 1. Description: Minimum inhibitory concentration required to reduce HSV-1(KOS) induced cytopathogenicity by 50%. The assay is classed as functional.

Converted amounts (≈) assume the structure as drawn.

`O=c1ccn([C@@H]2S[C@@H](CO)[C@H](O)[C@H]2O)c(=O)[nH]1`: the MIC in assay [1], in assay [2], in assay [3], in [4], in assay [5] and in assay [6] was 400 µg/mL (≈ 1540 µM) throughout. Also, the MIC in [7], in assay [8], in [9], in assay [10], in assay [11] and in [12] was 400 µg/mL (≈ 1540 µM) throughout. The same molecule registered an MIC in [13] of 400 µg/mL (≈ 1540 µM).
Consider `O=c1ccn([C@H]2S[C@@H](CO)[C@H](O)[C@H]2O)c(=O)[nH]1`, for which the MIC in [14] worked out at 48 µg/mL (≈ 184 µM); in assay [2] it was 400 µg/mL (≈ 1540 µM); in assay [3], 400 µg/mL (≈ 1540 µM); in assay [4], 400 µg/mL (≈ 1540 µM); in assay [5], 400 µg/mL (≈ 1540 µM); in assay [6] it was 400 µg/mL (≈ 1540 µM). The MIC in [7], in assay [8], in assay [9], in assay [10], in [11] and in assay [12] was 400 µg/mL (≈ 1540 µM) throughout. Moreover, in assay [13], the MIC was 400 µg/mL (≈ 1540 µM).
As to `Cc1cn([C@H]2S[C@@H](CO)[C@H](O)[C@H]2O)c(=O)[nH]c1=O`, the MIC in [1], in assay [2], in [3], in assay [4], in [5] and in [6] was 400 µg/mL (≈ 1460 µM) each time. The MIC in [7], in assay [8], in [9], in assay [10], in [11] and in [12] was 400 µg/mL (≈ 1460 µM) in each case. Also, in assay [13], the MIC is 400 µg/mL (≈ 1460 µM).
For `Cc1cn([C@@H]2S[C@@H](CO)[C@H](O)[C@H]2O)c(=O)[nH]c1=O`, the MIC in assay [14] came out at 48 µg/mL (≈ 175 µM); in assay [2], 400 µg/mL (≈ 1460 µM); in [3] it was 400 µg/mL (≈ 1460 µM); in [4], 400 µg/mL (≈ 1460 µM); in assay [5], 400 µg/mL (≈ 1460 µM); in [6], 400 µg/mL (≈ 1460 µM). Also, the MIC in assay [7], in assay [8], in [9], in assay [10], in assay [11] and in [12] was 400 µg/mL (≈ 1460 µM) each time. This molecule also showed an MIC in assay [13] of 400 µg/mL (≈ 1460 µM).
With `Nc1ncnc2c1ncn2[C@H]1S[C@@H](CO)[C@H](O)[C@H]1O`, the MIC in assay [1] came out at 400 µg/mL (≈ 1410 µM); in [2], 48 µg/mL (≈ 169 µM); in assay [3], 400 µg/mL (≈ 1410 µM); in [4], 400 µg/mL (≈ 1410 µM); in assay [5], 400 µg/mL (≈ 1410 µM); in [6], 400 µg/mL (≈ 1410 µM). The MIC in assay [7], in assay [8], in assay [9], in assay [10], in [11] and in assay [12] was 400 µg/mL (≈ 1410 µM) in each case. For the same molecule, the MIC in [13] is 400 µg/mL (≈ 1410 µM).
